The results in this text go back to PubChem BioAssay AID308 (DTP/NCI, 2004).

Several values for one entry are separate records, joined by “and”; a condition that tells them apart may be missing. Equal entries are not always repeated. Inconclusive results and toxic doses are left out.

This test relates to BDF1 mice, L1210 6-MP/6-TG resistant leukemia ip, survival T/C. Put plainly: NCI In Vivo Anticancer Drug Screen. Data for tumor model L1210 Leukemia resistant to 6-MP and 6-Thioguanine; NSC 755, NSC 752 (intraperitoneal) in B6D2F1 (BDF1) mice. As to conditions: endpoint: mean survival time, higher = longer survival. The protocol:
The antitumor activity of compounds was measured in mice bearing transplantable tumors. Survival or tumor size were measured and the results are expressed as the measurement made in the treated group (T) divided by the measurement made in the vehicle treated control group (C). The tumor model used in this assay is L1210 Leukemia resistant to 6-MP and 6-Thioguanine; NSC 755, NSC 752 (intraperitoneal) in B6D2F1 (BDF1) mice

With `COc1cc2c(c3c1c(=O)c1ccccc1n3C)C=CC(C)(C)O2`, the T/C runs as follows: (dose: 20.0 mg/kg/injection, schedule: Q01DX015 (ip), vehicle: carboxymethylcellulose (CMC)) 106 % of control; (dose: 40.0 mg/kg/injection, schedule: Q01DX015 (ip), vehicle: carboxymethylcellulose (CMC)) 116 % of control.

As to `C[C@H](N)C(=O)N[C@@H]1[C@H]2C(=C(O)C[C@@H](O)[C@@H]2O)C(=O)O[C@@H]1C`, the T/C is 152 % of control (dose: 330.0 mg/kg/injection, schedule: Q01DX015 (ip), vehicle: carboxymethylcellulose (CMC)); 189 % of control (dose: 500.0 mg/kg/injection, schedule: Q01DX Z (ip), vehicle: saline); 185 % of control (dose: 750.0 mg/kg/injection, schedule: Q01DX Z (ip), vehicle: saline); 100 % of control (dose: 2000.0 mg/kg/injection, schedule: Q01DX Z (ip), vehicle: saline).

Regarding `COS(C)(=O)=O`, the T/C reads like this: (dose: 25.0 mg/kg/injection, schedule: Q01DX Z (ip), vehicle: saline) 105 % of control; (dose: 50.0 mg/kg/injection, schedule: Q01DX Z (ip), vehicle: saline) 114 % of control; (dose: 75.0 mg/kg/injection, schedule: Q01DX Z (ip), vehicle: saline) 116 % of control; (dose: 100.0 mg/kg/injection, schedule: Q01DX Z (ip), vehicle: saline) 106 % of control.

For the compound `NC(Cc1ccc(N(CCCl)CCCl)cc1)C(=O)O` (stereo not given), the T/C reads like this: (dose: 0.5 mg/kg/injection, schedule: Q01DX Z (ip), vehicle: carboxymethylcellulose (CMC)) 163 % of control; (dose: 0.75 mg/kg/injection, schedule: Q01DX Z (ip), vehicle: carboxymethylcellulose (CMC)) 155 % of control; (dose: 1.0 mg/kg/injection, schedule: Q01DX Z (ip), vehicle: carboxymethylcellulose (CMC)) 188 % of control; (dose: 2.5 mg/kg/injection, schedule: Q01DX Z (ip), vehicle: carboxymethylcellulose (CMC)) 195 % of control; (dose: 3.75 mg/kg/injection, schedule: Q01DX Z (ip), vehicle: carboxymethylcellulose (CMC)) 195 % of control; (dose: 5.0 mg/kg/injection, schedule: Q01DX Z (ip), vehicle: carboxymethylcellulose (CMC)) 155 % of control. Also, the T/C (dose: 7.5 mg/kg/injection, schedule: Q01DX Z (ip), vehicle: carboxymethylcellulose (CMC)) was 119 % of control.

Take `CCCCCCCSc1ncnc2c1ncn2CO`: the T/C (dose: 150.0 mg/kg/injection, schedule: Q01DX009 (ip), vehicle: other) is 96 % of control; the T/C (dose: 200.0 mg/kg/injection, schedule: Q01DX009 (ip), vehicle: other) is 95 % of control; the T/C (dose: 300.0 mg/kg/injection, schedule: Q01DX009 (ip), vehicle: other) was 100 % of control; the T/C (dose: 400.0 mg/kg/injection, schedule: Q01DX009 (ip), vehicle: other) was 86 % of control.

For `OCC1OC(n2cnc3c(Cl)ncnc32)C(O)C1O` (stereo not given), the T/C is 91 % of control (dose: 62.5 mg/kg/injection, schedule: Q01DX Z (ip), vehicle: carboxymethylcellulose (CMC)); 89 % of control (dose: 125.0 mg/kg/injection, schedule: Q01DX Z (ip), vehicle: carboxymethylcellulose (CMC)); 95 % of control (dose: 250.0 mg/kg/injection, schedule: Q01DX Z (ip), vehicle: carboxymethylcellulose (CMC)); 95 % of control (dose: 500.0 mg/kg/injection, schedule: Q01DX Z (ip), vehicle: carboxymethylcellulose (CMC)); 92 % of control and 97 % of control (dose: 1000.0 mg/kg/injection, schedule: Q01DX001 (ip), vehicle: carboxymethylcellulose (CMC)); 94 % of control and 99 % of control (dose: 1500.0 mg/kg/injection, schedule: Q01DX001 (ip), vehicle: carboxymethylcellulose (CMC)). Moreover, where the note is “dose: 2000.0 mg/kg/injection, schedule: Q01DX001 (ip), vehicle: carboxymethylcellulose (CMC)”, the T/C is 94 % of control and 97 % of control.

For the compound `CC(C)Cn1cnc2c(Sc3c([N+](=O)[O-])ncn3C)nc(N)nc21`, the T/C runs as follows: (dose: 1.0 mg/kg/injection, schedule: Q01DX015 (ip), vehicle: other) 94 % of control; (dose: 2.0 mg/kg/injection, schedule: Q01DX015 (ip), vehicle: other) 92 % of control; (dose: 8.0 mg/kg/injection, schedule: Q01DX015 (ip), vehicle: other) 95 % of control; (dose: 12.5 mg/kg/injection, schedule: Q01DX015 (ip), vehicle: other) 100 % of control; (dose: 25.0 mg/kg/injection, schedule: Q01DX015 (ip), vehicle: other) 97 % of control; (dose: 50.0 mg/kg/injection, schedule: Q01DX015 (ip), vehicle: other) 90 % of control.

`C=CCSc1ncnc2c1ncn2C1OC(CO)C(O)C1O` (stereo not given): the T/C by setting is: (dose: 5.0 mg/kg/injection, schedule: Q01DX015 (ip), vehicle: saline) 112 % of control; (dose: 10.0 mg/kg/injection, schedule: Q01DX015 (ip), vehicle: saline) 102 % of control; (dose: 20.0 mg/kg/injection, schedule: Q01DX015 (ip), vehicle: saline) 100 % of control; (dose: 40.0 mg/kg/injection, schedule: Q01DX015 (ip), vehicle: saline) 100 % of control; (dose: 50.0 mg/kg/injection, schedule: Q01DX015 (ip), vehicle: saline) 105 % of control; (dose: 100.0 mg/kg/injection, schedule: Q01DX015 (ip), vehicle: saline) 94 % of control. Where the note is “dose: 200.0 mg/kg/injection, schedule: Q01DX015 (ip), vehicle: saline”, the T/C is 90 % of control.

Consider `CC(=O)OCC1OC(n2cnc3c(=S)nc[nH]c32)C(OC(C)=O)C1OC(C)=O` (stereo not given), for which the T/C (dose: 25.0 mg/kg/injection, schedule: Q01DX Z (ip), vehicle: carboxymethylcellulose (CMC)) was 104 % of control; the T/C (dose: 50.0 mg/kg/injection, schedule: Q01DX Z (ip), vehicle: carboxymethylcellulose (CMC)) was 111 % of control; the T/C (dose: 100.0 mg/kg/injection, schedule: Q01DX Z (ip), vehicle: carboxymethylcellulose (CMC)) was 108 % of control; the T/C (dose: 200.0 mg/kg/injection, schedule: Q01DX Z (ip), vehicle: carboxymethylcellulose (CMC)) was 98 % of control.
